Test results reported in US10975037B2 (priority 2018, dated 2021).
Where a name gives a salt, the structure may show the parent alone. Read-outs that look alike come from different tables or passages of the source.

Tests used:
full-length human RORγt = full-length human RORγt (Homo sapiens (Human), UniProt P51449); assay: RORγt (full-length human) reporter assay, conditions A or B, HEK293T cells; format: cell-based; conditions: for IC50: RORγt (FL) Reporter Assay A or B, IC50, HEK293T cells; for inhibition at 6 µM: read-out: RORγt (FL) Reporter Assay A or B, % inhibition @ 6 μM
In short: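 Dual-luciferase read-out was taken after an overnight (16–20 h) compound exposure. Firefly data were scaled between DMSO-only and saturating reference compound, Renilla-normalized, then plotted against concentration for IC50.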

[1] = molecular target: human RORγt ligand binding domain (RORγt LBD) (Homo sapiens (Human), UniProt P51449); assay: RORγt ThermoFluor® assay (thermal shift binding)
In short: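 Thermal shift with 0.065 mg/mL RORγt LBD and 60 μM 1,8-ANS in 100 mM Hepes pH 7.0, 10 mM NaCl, 2.5 mM GSH, 0.002% Tween-20.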

[2] = read-out: ThermoFluor® Assay, Kd
[3] = HEK-293T, read-out: RORγt (FL) Reporter Assay A or B, % inhibition
[4] = HEK-293T, 3 μM compound concentration (footnote *), read-out: RORγt (FL) Reporter Assay A or B, % inhibition
[5] = HEK-293T, 0.22 μM compound concentration (footnote *******), read-out: RORγt (FL) Reporter Assay A or B, % inhibition

Chain of full-length human RORγt (P51449 other isoform, or with tags, fused parts or gaps): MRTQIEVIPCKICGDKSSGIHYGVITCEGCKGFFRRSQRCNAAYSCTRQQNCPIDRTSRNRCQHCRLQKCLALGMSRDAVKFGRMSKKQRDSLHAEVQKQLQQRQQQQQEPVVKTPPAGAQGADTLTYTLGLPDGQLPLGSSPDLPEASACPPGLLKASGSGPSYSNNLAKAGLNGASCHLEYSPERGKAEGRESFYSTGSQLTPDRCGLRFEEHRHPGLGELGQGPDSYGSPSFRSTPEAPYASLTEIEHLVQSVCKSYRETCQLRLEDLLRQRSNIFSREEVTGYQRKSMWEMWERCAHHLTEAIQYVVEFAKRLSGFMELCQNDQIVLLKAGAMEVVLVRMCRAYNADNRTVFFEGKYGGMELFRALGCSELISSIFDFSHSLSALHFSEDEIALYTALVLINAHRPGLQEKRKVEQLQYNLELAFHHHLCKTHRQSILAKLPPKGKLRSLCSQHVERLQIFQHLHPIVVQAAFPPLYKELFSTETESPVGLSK
Chain of human RORγt ligand binding domain (RORγt LBD) (P51449 other isoform, or with tags, fused parts or gaps): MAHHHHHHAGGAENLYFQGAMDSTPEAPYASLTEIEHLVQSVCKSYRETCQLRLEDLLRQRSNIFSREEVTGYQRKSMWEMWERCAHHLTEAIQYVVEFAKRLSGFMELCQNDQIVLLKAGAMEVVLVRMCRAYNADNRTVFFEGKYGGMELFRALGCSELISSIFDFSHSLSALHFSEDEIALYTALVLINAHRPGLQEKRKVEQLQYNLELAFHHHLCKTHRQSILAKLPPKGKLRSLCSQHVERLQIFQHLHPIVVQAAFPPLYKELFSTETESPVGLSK

Row | Structure (SMILES) | IC50 (full-length human RORγt) | Kd ([1]; ThermoFluor® Assay, Kd) | Kd [1, 2] | further results
1 | C[C@H](Cc1ccc(-c2c(Cl)c(C(=O)NC[C@]3(O)CC[C@@H](S(C)(=O)=O)CC3)nn2C)c(OC(F)F)c1)C(F)(F)F (single isomer, unassigned) [Example 152, 4-Chloro-5-(2-(difluoromethoxy)-4-((R*)-3,3,3-trifluoro-2-methylpropyl)phenyl)-N-(((1s,4S)-1-hydroxy-4-(methylsulfonyl)cyclohexyl)methyl)-1-methyl-1H-pyrazole-3-carboxamide] | 37 nM | 7.9 nM |  | inhibition at […] (full-length human RORγt; HEK-293T, 0.33 μM compound concentration (footnote *****), read-out: RORγt (FL) Reporter Assay A or B, % inhibition): 72%
2 | CCn1nc(C(=O)NC[C@H]2CC[C@H](S(C)(=O)=O)CC2)c(Cl)c1-c1ccc(N[C@H](C)C(F)(F)F)cc1OC(C)C [Example 207, 4-Chloro-1-ethyl-5-(2-isopropoxy-4-(((R)-1,1-trifluoropropan-2-yl)amino)phenyl)-N-(((1r,4R)-4-(methylsulfonyl)cyclohexyl)methyl)-1H-pyrazole-3-carboxamide] | 40 nM |  | 10 nM | inhibition at 6 µM (full-length human RORγt; HEK-293T, 6 μM compound concentration): 101%
3 | Cc1c(C(=O)NC[C@]2(O)CC[C@@H](S(C)(=O)=O)CC2)nn(C)c1-c1ccc(CC(C)(C)C(F)(F)F)cc1OC(F)F [Example 157, 5-(2-(Difluoromethoxy)-4-(3,3,3-trifluoro-2,2-dimethylpropyl)phenyl)-N-(((1s,4s)-1-hydroxy-4-(methylsulfonyl)cyclohexyl)methyl)-1,4-dimethyl-1H-pyrazole-3-carboxamide] | 13 nM |  | 0.8 nM | inhibition at 0.3 µM (full-length human RORγt; [3]): 101%
4 | Cn1nc(C(=O)NC[C@]2(O)CC[C@@H](S(C)(=O)=O)C[C@H]2O)c(Cl)c1-c1ccc(CCCC(F)(F)F)cc1OC(F)F (stereo in doubt) [Example 160, 4-Chloro-5-(2-(difluoromethoxy)-4-(4,4,4-trifluorobutyl)phenyl)-N-(((1R*,2R*,4R*)-1,2-dihydroxy-4-(methylsulfonyl)cyclohexyl)methyl)-1-methyl-1H-pyrazole-3-carboxamide] | 27 nM | 39 nM |  | inhibition at 3 µM (full-length human RORγt; [4]): 96%
5 | CCn1nc(C(=O)NC[C@]2(O)CC[C@@H](S(C)(=O)=O)C[C@H]2N)c(Cl)c1-c1ccc(CC(C)(C)C(F)(F)F)cc1OC(F)F (single isomer, unassigned) [Example 6, N-(((1R*,2R*,4R*)-2-Amino-1-hydroxy-4-(methylsulfonyl)cyclohexyl)methyl)-4-chloro-5-(2-(difluoromethoxy)-4-(3,3,3-trifluoro-2,2-dimethylpropyl)phenyl)-1-ethyl-1H-pyrazole-3-carboxamide Hydrobromide] | 29 nM | 2.4 nM |  | inhibition at 3 µM (full-length human RORγt; [4]): 117%
6 | COc1cc(N[C@H](C)C(F)(F)F)ccc1-c1c(Cl)c(C(=O)NC[C@]2(O)CC[C@@H](S(C)(=O)=O)CC2)nn1CC(C)C [Example 29, 4-Chloro-N-(((1s,4S)-1-hydroxy-4-(methylsulfonyl)cyclohexyl)methyl)-1-isobutyl-5-(2-methoxy-4-(((R)-1,1,1-trifluoropropan-2-yl)amino)phenyl)-1H-pyrazole-3-carboxamide] | 61 nM |  | 8.3 nM | inhibition at 6 µM (full-length human RORγt; HEK-293T): 108%
7 | CCCn1nc(C(=O)NC[C@]2(O)CC[C@@H](S(C)(=O)=O)CC2)c(Cl)c1-c1ccc(C[C@H](C)C(F)(F)F)cc1OC (single isomer, unassigned) [Example 40, 4-Chloro-N-(((1s,4R)-1-hydroxy-4-(methylsulfonyl)cyclohexyl)methyl)-5-(2-methoxy-4-((S*)-3,3,3-trifluoro-2-methylpropyl)phenyl)-1-propyl-1H-pyrazole-3-carboxamide] | 13 nM | 0.71 nM |  | inhibition at 2 µM (full-length human RORγt; HEK-293T, 2 μM compound concentration, read-out: RORγt (FL) Reporter Assay A or B, % inhibition): 99%
8 | CCn1nc(C(=O)NC[C@]2(O)CC[C@@H](S(C)(=O)=O)CC2)c(Cl)c1-c1ccc(CC(C)(C)C(F)(F)F)cc1C [Example 183, 4-Chloro-1-ethyl-N-(((1s,4s)-1-hydroxy-4-(methylsulfonyl)cyclohexyl)methyl)-5-(2-methyl-4-(3,3,3-trifluoro-2,2-dimethylpropyl)phenyl)-1H-pyrazole-3-carboxamide] | 3.9 nM |  | 3 nM | inhibition at […] (full-length human RORγt; [5]): 70%
9 | CCn1nc(C(=O)NC[C@]2(O)CC[C@@H](S(C)(=O)=O)CC2)c(Cl)c1-c1ccc(CC(C)(C)C(F)(F)F)cc1C#N [Example 88, 4-Chloro-5-(2-cyano-4-(3,3,3-trifluoro-2,2-dimethylpropyl)phenyl)-1-ethyl-N-(((1s,4s)-1-hydroxy-4-(methylsulfonyl)cyclohexyl)methyl)-1H-pyrazole-3-carboxamide] | 130 nM |  | 15 nM | inhibition at 3 µM (full-length human RORγt; [3]): 88%
10 | CCn1nc(C(=O)NC[C@H]2CC[C@H](S(C)(=O)=O)CC2)c(Cl)c1-c1ccc(CC(C)(C)C(F)(F)F)cc1F [Example 177, 4-Chloro-1-ethyl-5-(2-fluoro-4-(3,3,3-trifluoro-2,2-dimethylpropyl)phenyl)-N-(((1r,4r)-4-(methylsulfonyl)cyclohexyl)methyl)-1H-pyrazole-3-carboxamide] | 7.2 nM |  | 2.2 nM | inhibition at […] (full-length human RORγt; [5]): 77%
11 | CCn1nc(C(=O)NC[C@]2(O)CC[C@@H](S(C)(=O)=O)C[C@H]2O)c(C)c1-c1ccc(C[C@@H](C)C(F)(F)F)cc1OC(F)F (stereo in doubt) [Example 140, 5-(2-(Difluoromethoxy)-4-((R*)-3,3,3-trifluoro-2-methylpropyl)phenyl)-N-(((1R*,2R*,4R*)-1,2-dihydroxy-4-(methylsulfonyl)cyclohexyl)methyl)-1-ethyl-4-methyl-1H-pyrazole-3-carboxamide] | 15 nM | 2.4 nM |  | inhibition at 3 µM (full-length human RORγt; [4]): 109%
12 | CCn1nc(C(=O)NC[C@H]2CC[C@H](S(C)(=O)=O)CC2)c(Cl)c1-c1ccc(CC(C)(C)C(F)(F)F)cc1C(F)(F)F [Example 162, 4-Chloro-1-ethyl-N-(((1r,4r)-4-(methylsulfonyl)cyclohexyl)methyl)-5-(4-(3,3,3-trifluoro-2,2-dimethylpropyl)-2-(trifluoromethyl)phenyl)-1H-pyrazole-3-carboxamide] | 5.9 nM |  | 0.48 nM | inhibition at […] (full-length human RORγt; [5]): 72%
13 | CCn1nc(C(=O)NC[C@]2(O)CC[C@@H](S(C)(=O)=O)CC2)c(Cl)c1-c1ccc(CC(C)(C)C(F)(F)F)cc1F [Example 178, 4-Chloro-1-ethyl-5-(2-fluoro-4-(3,3,3-trifluoro-2,2-dimethylpropyl)phenyl)-N-(((1s,4s)-1-hydroxy-4-(methylsulfonyl)cyclohexyl)methyl)-1H-pyrazole-3-carboxamide] | 30 nM |  | 2.4 nM | inhibition at 0.67 µM (full-length human RORγt; HEK-293T, 0.67 μM compound concentration (footnote ****), read-out: RORγt (FL) Reporter Assay A or B, % inhibition): 89%
14 | Cn1nc(C(=O)NC[C@H]2CC[C@H](S(C)(=O)=O)CC2)c(Cl)c1-c1ccc(CC(C)(C)C(F)(F)F)cc1OC(F)F [Example 155, 4-Chloro-5-(2-(difluoromethoxy)-4-(3,3,3-trifluoro-2,2-dimethylpropyl)phenyl)-1-methyl-N-(((1r,4r)-4-(methylsulfonyl)cyclohexyl)methyl)-1H-pyrazole-3-carboxamide] | 4.2 nM |  | 0.33 nM | 
